# Experimental data reported in PubChem BioAssay (NCI).
#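 How tested: cells in 96-well plates exposed to compound for 48 hours at five concentrations. Here, GI50 denotes the concentration required for 50% inhibition of growth. TGI denotes the concentration required for complete inhibition of growth.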
# Assays:
# Assay in all cases: NCI anticancer screen, dose series, 48 h
# SK-OV-3 ovarian = system: SK-OV-3 ovarian
# OVCAR-3 ovarian = system: OVCAR-3 ovarian
# SF-295 CNS = system: SF-295 CNS
# U251 CNS = system: U251 CNS
# MDA-MB-435 = system: MDA-MB-435
# HL-60(TB) leukemia = system: HL-60(TB) leukemia
# OVCAR-8 ovarian = system: OVCAR-8 ovarian
# SF-268 CNS = system: SF-268 CNS
# NCI-H460 lung = system: NCI-H460 lung
# MDA-MB-231 breast = system: MDA-MB-231 breast
# EKVX NSCLC = system: EKVX NSCLC
# ACHN renal = system: ACHN renal
# IGROV1 ovarian = system: IGROV1 ovarian
# SF-539 CNS = system: SF-539 CNS
# UACC-257 melanoma = system: UACC-257 melanoma
# M14 melanoma = system: M14 melanoma
# KM12 colon = system: KM12 colon
# OVCAR-4 ovarian = system: OVCAR-4 ovarian
# K-562 leukemia = system: K-562 leukemia
# A498 renal = system: A498 renal
# MALME-3M melanoma = system: MALME-3M melanoma
# NCI-H23 lung = system: NCI-H23 lung
# COLO 205 colon = system: COLO 205 colon
# OVCAR-5 ovarian = system: OVCAR-5 ovarian
# SNB-75 CNS = system: SNB-75 CNS
# PC-3 prostate = system: PC-3 prostate
# SNB-19 CNS = system: SNB-19 CNS
# SK-MEL-5 melanoma = system: SK-MEL-5 melanoma
# SR leukemia = system: SR leukemia
# T-47D breast = system: T-47D breast
# HT29 colon = system: HT29 colon
# SK-MEL-2 melanoma = system: SK-MEL-2 melanoma
# UACC-62 melanoma = system: UACC-62 melanoma
# CAKI-1 renal = system: CAKI-1 renal
# MOLT-4 leukemia = system: MOLT-4 leukemia
# DU-145 prostate = system: DU-145 prostate
# MCF7 breast = system: MCF7 breast
# HCC-2998 colon = system: HCC-2998 colon
# NCI-H226 lung = system: NCI-H226 lung
# HOP-92 NSCLC = system: HOP-92 NSCLC
# HCT-116 colon = system: HCT-116 colon
# HCT-15 colon = system: HCT-15 colon
# LOX IMVI melanoma = system: LOX IMVI melanoma
# UO-31 renal = system: UO-31 renal
# TK-10 renal = system: TK-10 renal
# NCI/ADR-RES ovarian = system: NCI/ADR-RES ovarian
# NCI-H522 lung = system: NCI-H522 lung
# A549 NSCLC = system: A549 NSCLC
# HOP-62 NSCLC = system: HOP-62 NSCLC
# CCRF-CEM leukemia = system: CCRF-CEM leukemia
# 786-0 renal = system: 786-0 renal
# SN12C renal = system: SN12C renal
# BT-549 breast = system: BT-549 breast
# RPMI-8226 leukemia = system: RPMI-8226 leukemia
smiles,measurement,setting,value
COc1cc(C(=O)/C=C/c2c(-c3cccs3)nc3sc(C)cn23)cc(OC)c1OC,GI50,SK-OV-3 ovarian,3.37 µM
same,TGI,SK-OV-3 ovarian,10.4 µM
same,GI50,OVCAR-3 ovarian,2.8 µM
same,TGI,OVCAR-3 ovarian,18.7 µM
same,GI50,SF-295 CNS,3.69 µM
same,TGI,SF-295 CNS,> 100 µM
same,GI50,U251 CNS,3.72 µM
same,TGI,U251 CNS,> 100 µM
same,GI50,MDA-MB-435,2.68 µM
same,TGI,MDA-MB-435,31.6 µM
same,GI50,HL-60(TB) leukemia,2.69 µM
same,TGI,HL-60(TB) leukemia,> 100 µM
same,GI50,OVCAR-8 ovarian,1.21 µM
same,TGI,OVCAR-8 ovarian,8.31 µM
same,GI50,SF-268 CNS,3.84 µM
same,TGI,SF-268 CNS,> 100 µM
same,GI50,NCI-H460 lung,1.87 µM
same,TGI,NCI-H460 lung,5.3 µM
same,GI50,MDA-MB-231 breast,2.96 µM
same,TGI,MDA-MB-231 breast,31.1 µM
same,GI50,EKVX NSCLC,1.99 µM
same,TGI,EKVX NSCLC,> 100 µM
same,GI50,ACHN renal,5.15 µM
same,TGI,ACHN renal,> 100 µM
same,GI50,IGROV1 ovarian,2.53 µM
same,TGI,IGROV1 ovarian,6.35 µM
same,GI50,SF-539 CNS,2.12 µM
same,TGI,SF-539 CNS,5.17 µM
same,GI50,UACC-257 melanoma,3.86 µM
same,TGI,UACC-257 melanoma,66 µM
same,GI50,M14 melanoma,5.59 µM
same,TGI,M14 melanoma,> 100 µM
same,GI50,KM12 colon,2.83 µM
same,TGI,KM12 colon,> 100 µM
same,GI50,OVCAR-4 ovarian,2.85 µM
same,TGI,OVCAR-4 ovarian,22.3 µM
same,GI50,K-562 leukemia,2.07 µM
same,TGI,K-562 leukemia,> 100 µM
same,GI50,A498 renal,1.51 µM
same,TGI,A498 renal,5.78 µM
same,GI50,MALME-3M melanoma,3.19 µM
same,TGI,MALME-3M melanoma,15 µM
same,GI50,NCI-H23 lung,4.97 µM
same,TGI,NCI-H23 lung,> 100 µM
same,GI50,COLO 205 colon,4.01 µM
same,TGI,COLO 205 colon,> 100 µM
same,GI50,OVCAR-5 ovarian,82 µM
same,TGI,OVCAR-5 ovarian,> 100 µM
same,GI50,SNB-75 CNS,2.49 µM
same,TGI,SNB-75 CNS,6.93 µM
same,GI50,PC-3 prostate,2.8 µM
same,TGI,PC-3 prostate,> 100 µM
same,GI50,SNB-19 CNS,2.91 µM
same,TGI,SNB-19 CNS,13.3 µM
same,GI50,SK-MEL-5 melanoma,0.948 µM
same,TGI,SK-MEL-5 melanoma,3.22 µM
same,GI50,SR leukemia,1.12 µM
same,TGI,SR leukemia,5.46 µM
same,GI50,T-47D breast,1.77 µM
same,TGI,T-47D breast,7.65 µM
same,GI50,HT29 colon,3.91 µM
same,TGI,HT29 colon,> 100 µM
same,GI50,SK-MEL-2 melanoma,2.73 µM
same,TGI,SK-MEL-2 melanoma,8.31 µM
same,GI50,UACC-62 melanoma,2.52 µM
same,TGI,UACC-62 melanoma,19.9 µM
same,GI50,CAKI-1 renal,2.92 µM
same,TGI,CAKI-1 renal,> 100 µM
same,GI50,MOLT-4 leukemia,1.27 µM
same,TGI,MOLT-4 leukemia,6.62 µM
same,GI50,DU-145 prostate,2.99 µM
same,TGI,DU-145 prostate,14 µM
same,GI50,MCF7 breast,2.35 µM
same,TGI,MCF7 breast,20.5 µM
same,GI50,HCC-2998 colon,3.87 µM
same,TGI,HCC-2998 colon,12.4 µM
same,GI50,NCI-H226 lung,4.6 µM
same,TGI,NCI-H226 lung,54.8 µM
same,GI50,HOP-92 NSCLC,0.47 µM
same,TGI,HOP-92 NSCLC,4.93 µM
same,GI50,HCT-116 colon,3.8 µM
same,TGI,HCT-116 colon,> 100 µM
same,GI50,HCT-15 colon,3.38 µM
same,TGI,HCT-15 colon,> 100 µM
same,GI50,LOX IMVI melanoma,3.84 µM
same,TGI,LOX IMVI melanoma,> 100 µM
same,GI50,UO-31 renal,1.84 µM
same,TGI,UO-31 renal,7.97 µM
same,GI50,TK-10 renal,6.16 µM
same,TGI,TK-10 renal,> 100 µM
same,GI50,NCI/ADR-RES ovarian,2.1 µM
same,TGI,NCI/ADR-RES ovarian,33.9 µM
same,GI50,NCI-H522 lung,1.36 µM
same,TGI,NCI-H522 lung,4.57 µM
same,GI50,A549 NSCLC,2.69 µM
same,TGI,A549 NSCLC,19.6 µM
same,GI50,HOP-62 NSCLC,5.74 µM
same,TGI,HOP-62 NSCLC,64.5 µM
same,GI50,CCRF-CEM leukemia,1.93 µM
same,TGI,CCRF-CEM leukemia,> 100 µM
same,GI50,786-0 renal,3.7 µM
same,TGI,786-0 renal,38.2 µM
same,GI50,SN12C renal,5.29 µM
same,TGI,SN12C renal,> 100 µM
same,GI50,BT-549 breast,3.82 µM
same,TGI,BT-549 breast,39.9 µM
same,GI50,RPMI-8226 leukemia,1.67 µM
same,TGI,RPMI-8226 leukemia,15.6 µM
